Legend:
Experiment in all cases: relative viability (nuclei count vs DMSO), 5 days (fraction); higher = more cells survive
Doramapimod + Tozasertib = compound: Cc1ccc(-n2nc(C(C)(C)C)cc2NC(=O)Nc2ccc(OCCN3CCOCC3)c3ccccc23)cc1 [Doramapimod] + Cc1cc(Nc2cc(N3CCN(C)CC3)nc(Sc3ccc(NC(=O)C4CC4)cc3)n2)n[nH]1 [Tozasertib] (partner 0.1 µM)
In short: (§1)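 Lung cancer cell lines, seeded in 1536-well plates, were treated the following day by pin tool with a single drug or with five library-drug doses (not always all listed) in √10 steps on top of a fixed anchor-drug dose. Cells were fixed and nuclei stained in one step after 5 days, and nuclei were counted. Relative viability is the nuclei count for treated wells divided by that for vehicle wells, reported as medians of duplicate plates.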

RAF265 + Palbociclib = compound: Cn1c(Nc2ccc(C(F)(F)F)cc2)nc2cc(Oc3ccnc(-c4ncc(C(F)(F)F)[nH]4)c3)ccc21 [RAF265] + CC(=O)c1c(C)c2cnc(Nc3ccc(N4CCNCC4)cn3)nc2n(C2CCCC2)c1=O [Palbociclib] (partner 0.5 µM)
In short: as §1

RAF265 + Decitabine = compound: Cn1c(Nc2ccc(C(F)(F)F)cc2)nc2cc(Oc3ccnc(-c4ncc(C(F)(F)F)[nH]4)c3)ccc21 [RAF265] + Nc1ncn([C@H]2C[C@H](O)[C@@H](CO)O2)c(=O)n1 [Decitabine] (partner 2 µM)
In short: as §1

RAF265 + Alpelisib = compound: Cn1c(Nc2ccc(C(F)(F)F)cc2)nc2cc(Oc3ccnc(-c4ncc(C(F)(F)F)[nH]4)c3)ccc21 [RAF265] + Cc1nc(NC(=O)N2CCC[C@H]2C(N)=O)sc1-c1ccnc(C(C)(C)C(F)(F)F)c1 [Alpelisib] (partner 2 µM)
In short: as §1

Cell Line	relative viability (Doramapimod + Tozasertib; first compound 0.02 µM)	relative viability (Doramapimod + Tozasertib; first compound 0.06325 µM)	relative viability (Doramapimod + Tozasertib; first compound 0.2 µM)	relative viability (Doramapimod + Tozasertib; first compound 0.6325 µM)	relative viability (Doramapimod + Tozasertib; first compound 2 µM)	relative viability (RAF265 + Palbociclib; first compound 0.01 µM)	relative viability (RAF265 + Palbociclib; first compound 0.03162 µM)	relative viability (RAF265 + Palbociclib; first compound 0.1 µM)	relative viability (RAF265 + Palbociclib; first compound 0.3162 µM)	relative viability (RAF265 + Palbociclib; first compound 1 µM)	relative viability (RAF265 + Decitabine; first compound 0.01 µM)	relative viability (RAF265 + Decitabine; first compound 0.03162 µM)	relative viability (RAF265 + Decitabine; first compound 0.1 µM)	relative viability (RAF265 + Decitabine; first compound 0.3162 µM)	relative viability (RAF265 + Decitabine; first compound 1 µM)	relative viability (RAF265 + Alpelisib; first compound 0.01 µM)	relative viability (RAF265 + Alpelisib; first compound 0.03162 µM)	relative viability (RAF265 + Alpelisib; first compound 0.1 µM)	relative viability (RAF265 + Alpelisib; first compound 0.3162 µM)	relative viability (RAF265 + Alpelisib; first compound 1 µM)
NCI-H1648	0.442	0.498	0.58	0.353	0.481	0.287	0.283	0.266	0.26	0.242	0.453	0.557	0.518	0.4	0.391	–	–	–	–	–
NCI-H1792	–	–	–	–	–	0.658	0.676	0.758	0.474	0.298	0.462	0.506	0.472	0.324	0.204	0.668	0.663	0.668	0.518	0.168
NCI-H596	0.939	0.862	1.11	0.982	0.883	–	–	–	–	–	1.06	0.975	0.913	1.13	0.925	0.561	0.444	0.495	0.513	0.359
NCI-H1563	–	–	–	–	–	–	–	–	–	–	–	–	–	–	–	0.977	0.999	0.973	0.898	0.985
NCI-H2342	0.494	0.508	0.554	0.584	0.621	0.582	0.547	0.558	0.468	0.474	0.717	0.672	0.727	0.784	0.714	–	–	–	–	–
NCI-H522	0.501	0.489	0.579	0.59	0.471	1.01	1.03	1.26	0.99	0.863	0.651	0.585	0.604	0.729	0.617	–	–	–	–	–
CAL-12T	0.298	0.341	0.338	0.272	0.315	0.622	0.488	0.364	0.27	0.178	–	–	–	–	–	1.26	1.04	0.944	0.575	0.354
EBC-1	–	–	–	–	–	–	–	–	–	–	–	–	–	–	–	0.907	0.794	0.495	0.403	0.541
NCI-H1650	0.416	0.408	0.395	0.382	0.357	0.385	0.319	0.418	0.278	0.277	0.424	0.439	0.426	0.4	0.472	–	–	–	–	–
IA-LM	–	–	–	–	–	–	–	–	–	–	–	–	–	–	–	0.774	–	0.587	0.752	0.44
NCI-H1703	–	–	–	–	–	–	–	–	–	–	–	–	–	–	–	0.213	0.298	0.251	0.274	0.206
NCI-H2228	0.263	0.296	0.258	0.263	0.242	0.721	0.73	0.818	0.333	0.284	–	–	–	–	–	0.791	0.718	0.436	0.299	0.29
